{
  "source": "patent US8748375B2",
  "about": "(Amylin Pharmaceuticals, LLC, priority 2009, dated 2014)",
  "key": {"[1]": {"tested_on": "insulin-stimulated glycogen synthesis in soleus muscle", "experiment": "Soleus Muscle Assay", "type": "cell-based, rat", "protocol": "Concentrations of peptide dissolved in carrier-free buffers are determined by quantitative amino acid analysis, as described therein. The ability of compounds to act as agonists in this assay is determined by measuring EC50 values. […] Similar results were obtained with other agonist compounds listed above."}, "[2]": {"experiment": "adsorption onto glass in liquid form", "type": "physicochemical", "details": "glass container", "description": "These formulations may then be lyophilized. Surfactants can cause denaturation of protein, both of hydrophobic disruption and by salt bridge separation. Relatively low concentrations of surfactant may exert a potent denaturing activity, because of the strong interactions between surfactant moieties and the reactive sites on proteins. However, judicious use of this interaction can stabilize proteins against interfacial or surface denaturation. Surfactants which could further stabilize the peptide may optionally be present in the range of about 0.001 to 0.3% (w/v) of the total formulation and include polysorbate 80 (i.e., polyoxyethylene(20) sorbitan monooleate), CHAPS® (i.e., 3-[(3-cholamidopropyl) dimethylammonio] 1-propanesulfonate), Brij® (e.g., Brij 35, which is (polyoxyethylene (23) lauryl ether), poloxamer, or another non-ionic surfactant."}, "[3]": {"tested_on": "DIO Levin rats", "experiment": "Example 5: amylin versus pramlintide", "type": "in vivo, rat", "details": "76 nmol/kg/day, osmotic mini-pump, 24 days", "protocol": "48 DIO Levin rats (an in-bred model of diet induced obesity) were used in this study. […] Food intake and body weight was measured daily. […] The pair-fed groups were only allowed to consume the daily intakes of their respective drug-treated groups. For body composition, rats were scanned in a rodent NMR before treatment and after sacrifice (at the end of the study), allowing for the ability to calculate changes in carcass fat and protein (e.g., lean tissue)."}, "[4]": {"details": "pramlintide 180 mcg TID, 1 day of treatment; cited from earlier work"}, "[5]": {"details": "in vivo; cited from earlier work"}, "[6]": {"tested_on": "High fat-fed male SPRAGUE-DAWLEY rats (DIO)", "experiment": "Example 1: chronic infusion, food consumption, body weight, body composition", "type": "in vivo, rat", "details": "obesity-prone rats, vs vehicle control", "protocol": "(§1) Low fat-fed rats (11% kcal from fat, D12329, Research Diets) were also implanted with pumps delivering vehicle. Food intake and body weight measurements were obtained weekly.\nRats were sacrificed by cardiac puncture under anesthesia. Triglyceride levels were measured on a COBAS Mira plasma analyzer (Roche), and leptin and insulin were assayed according to Linco Research rat RIA kits. Body composition was measured by chemical analysis (Covance Laboratories, Madison, Wis.).\nAll data are represented as mean±SEM. Analysis of variance was used to test for group differences.\nThe rats were fattened for 10 weeks prior to drug treatment. The high fat-fed rats were designated as obesity-prone (top 50% of weight gainers) or obesity-resistant (bottom 50%) based on the amount of weight gained through week 7."}, "[7]": {"tested_on": "high fat-fed rats", "experiment": "Example 2: three doses of amylin, food intake and body weight", "type": "in vivo, rat", "description": "as §1"}, "[8]": {"tested_on": "Lean, male Harlan SPRAGUE DAWLEY (HSD) rats", "experiment": "Example 3: chronic amylin infusion, lean rats", "type": "in vivo, rat", "parameters": "Fat: dose or concentration left out as unconfirmed", "protocol": "(§2) Lean, male Harlan SPRAGUE DAWLEY® (HSD) (Harlan 7012) rats were maintained on “standard chow” (˜5% calories from fat).\n(§3) Food intake and body weight were recorded daily (FIGS. 5, 6A, 6B, 7, 8A, and 8B).\n(§4) On the final day of the experiment, rats were deeply anaesthetized and sacrificed by cardiac puncture. Plasma triglycerides, glucose, and cholesterol were measured on a COBAS Mira plasma Analyzer (Roche). Plasma leptin and insulin were measured using Linco Research kits. (See, FIGS. 9A-9F and 10A-10E.) Body composition was measured by chemical analysis (Covance Laboratories, Madison, Wis.). Fat pad weights of the epididymal, retroperitoneal, subcutaneous, and perirenal fat pads (all unilateral; analysis only done in DIO animals) were carefully dissected and weighed (FIGS. 12A-12D). In analyzing the tissue biochemistry, […] were powdered under liquid N2 and extracted in chloroform:methanol. 0.6% NaCl solution was then added and the tubes were vortexed, centrifuged, and the organic phase was transferred to glass scintillation vials and dried under a stream of N2. Dried lipids were resuspended and triglycerides were quantified by enzymatic assay (Pointe Scientific, Inc.). Tissue glycogen was measured by the amyloglucosidase method. (See FIGS. 11A-11D.)\n(§5) All data are represented as mean±SEM. Analysis of variance (ANOVA) and Bonferroni post-hoc tests were used to test for group differences (SYSTAT® for Windows). A P-value<0.05 was considered significant. Graphs were generated using PRISM® 4 for Windows (Graphpad Software)."}, "[9]": {"tested_on": "DIO (Levin) male rats", "experiment": "Example 3: chronic amylin infusion, DIO rats", "type": "in vivo, rat", "parameters": "Ash: dose or concentration left out as unconfirmed", "protocol": "as §2, §3, §4, §5"}, "[10]": {"tested_on": "Retired female breeder rats on high fat diet", "experiment": "Example 4: amylin with prior or concurrent food restriction", "type": "in vivo, rat", "details": "for Estimated Mean Weight change from treatment: amylin 100 μg/kg/day", "description": "Retired female breeder rats were maintained on a high fat diet (40% fat) for 8 weeks. Prior to drug treatment, rats were either ad-lib fed or food restricted to 95% of their starting body weight."}, "[11]": {"details": "amylin 300 mg/kg/day, 28-day pump"}, "[12]": {"details": "DIO rats, amylin 300 mg/kg/day, 28-day pump"}},
  "note": "Marks after values point to notes of the source that are not given here.",
  "data": [
    {"compound": "CC[C@H](C)[C@H](NC(=O)[C@@H]1CCCN1C(=O)CNC(=O)[C@H](Cc1ccccc1)NC(=O)[C@H](CC(N)=O)NC(=O)[C@H](CC(N)=O)NC(=O)[C@H](CO)NC(=O)[C@H](CO)NC(=O)[C@H](Cc1c[nH]cn1)NC(=O)[C@@H](NC(=O)[C@H](CC(C)C)NC(=O)[C@H](Cc1ccccc1)NC(=O)[C@H](CC(N)=O)NC(=O)[C@H](C)NC(=O)[C@H](CC(C)C)NC(=O)[C@H](CCCNC(=N)N)NC(=O)[C@H](CCC(N)=O)NC(=O)[C@@H](NC(=O)[C@H](C)NC(=O)[C@@H]1CSSC[C@H](NC(=O)[C@@H](N)CCCCN)C(=O)N[C@@H](CC(N)=O)C(=O)N[C@@H]([C@@H](C)O)C(=O)N[C@@H](C)C(=O)N[C@@H]([C@@H](C)O)C(=O)N1)[C@@H](C)O)C(C)C)C(=O)N[C@@H](CC(C)C)C(=O)N1CCC[C@H]1C(=O)N1CCC[C@H]1C(=O)N[C@H](C(=O)N[C@@H](CC(N)=O)C(=O)N[C@H](C(=O)NCC(=O)N[C@@H](CO)C(=O)N[C@@H](CC(N)=O)C(=O)N[C@H](C(=O)N[C@@H](Cc1ccc(O)cc1)C(N)=O)[C@@H](C)O)C(C)C)[C@@H](C)O", "note": "[^25, 28, 29Pro-h-Amylin]", "values": [
      {"measurement": "amylin agonist activity (in words)", "setting": "[1]", "value": "act as amylin agonists"},
      {"measurement": "antagonist activity in soleus muscle assay (in words)", "setting": "[1]", "value": "negligible antagonist activity"},
      {"measurement": "tendency to adsorb onto glass", "setting": "[2]", "value": "does not have a tendency to adsorb onto the glass"},
      {"measurement": "body composition", "setting": "[3]", "value": "favorable effects on body composition"},
      {"measurement": "body weight gain", "setting": "[3]", "value": "significant effect on slowing body weight gain"},
      {"measurement": "reduction in mean daily caloric intake", "setting": "[4]", "value": "~19", "unit": "%"}
    ]},
    {"compound": "CSNLSTCVLGKLSQELHKLQTYPRTNTGSGTP [salmon calcitonin]", "values": [
      {"measurement": "delayed effect, peak levels still maintained at", "setting": "[5]", "value": 240, "unit": "min"}
    ]},
    {"compound": "amylin: Amylin synthesized by Amylin Pharmaceuticals, Inc. by solid-phase chemistry; species not stated in the examples (KCNTATCATQRLANFLVHSSNNFGAILSSTNVGSNTY; Islet amyloid polypeptide; UniProt P10997 34-70, looked up)", "values": [
      {"measurement": "protein (body composition)", "setting": "[6]", "value": "increase in protein"},
      {"measurement": "body weight gain", "setting": "[7]; 30 μg/kg/day", "value": "reduction in body weight gain"},
      {"measurement": "effects on food intake and body weight", "setting": "[7]; 30, 100, 300 μg/kg/day", "value": "dose-dependent"},
      {"measurement": "weight gain compared to vehicle rats", "setting": "[8]", "value": "significant reduction in weight gain"},
      {"measurement": "Moisture", "setting": "[8]; [11]", "value": "67.57 ± 0.7", "unit": "%"},
      {"measurement": "Protein", "setting": "[8]; [11]", "value": "20.67 ± 0.74", "unit": "%"},
      {"measurement": "Weight", "setting": "[8]; [11]", "value": "392.25* g"},
      {"measurement": "Fat", "setting": "[8]; amylin, 28-day pump", "value": "7.2 ± 1.5", "unit": "%"},
      {"measurement": "percent body fat", "setting": "[8]; relative to pair-fed", "value": "lower percent body fat relative to pair-fed"},
      {"measurement": "percent body fat", "setting": "[9]; DIO rats", "value": "significant decrease in percent body fat"},
      {"measurement": "percent protein", "setting": "[9]; DIO rats", "value": "significant preservation or gain in percent protein"},
      {"measurement": "weight gain compared to vehicle rats", "setting": "[9]; DIO rats", "value": "significant reduction in weight gain"},
      {"measurement": "Ash", "setting": "[9]; DIO rats, 28-day pump", "value": "1.65 ± 0.34", "unit": "%"},
      {"measurement": "Fat", "setting": "[9]; [12]", "value": "24.3 ± 6.5", "unit": "%"},
      {"measurement": "Moisture", "setting": "[9]; [12]", "value": "56.68 ± 4.4", "unit": "%"},
      {"measurement": "Protein", "setting": "[9]; [12]", "value": "18.09 ± 1.68", "unit": "%"},
      {"measurement": "Weight", "setting": "[9]; [12]", "value": "548.94* g"},
      {"measurement": "muscle glycogen content", "setting": "[9]; rat, in vivo", "value": "significantly reduced muscle glycogen content"},
      {"measurement": "Estimated Mean Weight change from treatment", "setting": "[10]; Ad-lib prior, Ad-lib during", "value": "-21.8 ± 1.4", "unit": "g"},
      {"measurement": "Estimated Mean Weight change from treatment", "setting": "[10]; Ad-lib prior, Restricted during", "value": "-23.1 ± 2.3", "unit": "g"},
      {"measurement": "Estimated Mean Weight change from treatment", "setting": "[10]; Restricted prior, Ad-lib during", "value": "-18.2 ± 2.5", "unit": "g"},
      {"measurement": "Estimated Mean Weight change from treatment", "setting": "[10]; Restricted prior, Restricted during", "value": "-17.1 ± 2.0", "unit": "g"},
      {"measurement": "body weight", "setting": "[10]; all treatment conditions", "value": "significantly reduced body weight under all treatment conditions"},
      {"measurement": "food intake", "setting": "[10]; vs vehicle treated counterparts", "value": "ate less than their vehicle treated counterparts"},
      {"measurement": "body composition", "setting": "[3]", "value": "favorable effects on body composition"},
      {"measurement": "body weight gain", "setting": "[3]", "value": "significant effect on slowing body weight gain"},
      {"measurement": "effect on food intake tapers off after", "setting": "[5]", "value": 60, "unit": "min"},
      {"measurement": "onset of effect on food intake", "setting": "[5]", "value": "≤ 30", "unit": "min"}
    ]}
  ]
}
